Measurements from patent US7101878B1 (Agouron Pharmaceuticals, Inc., priority 1998, dated 2006).

Experiments:
[1] = molecular target: H2 Histamine (Homo sapiens, UniProt P25021); assay: Selectivity: H2 Histamine
[2] = molecular target: H3 Histamine (Homo sapiens, UniProt Q9Y5N1); assay: Selectivity: H3 Histamine
[3] = molecular target: PAF (Homo sapiens, UniProt P25105); assay: biochemical
[4] = molecular target: Choline Acetyltransferase (Homo sapiens, UniProt P28329); assay: biochemical
[5] = molecular target: NK2 (Homo sapiens, UniProt P21452); assay: biochemical
[6] = molecular target: AchE (Homo sapiens, UniProt P22303); assay: Selectivity: AchE
[7] = molecular target: RARγ Retinoid (Homo sapiens, UniProt P13631); assay: biochemical
[8] = molecular target: MAO-B (Homo sapiens, UniProt P27338); assay: Selectivity: MAO-B
[9] = molecular target: RXRα Retinoid (Homo sapiens, UniProt P19793); assay: biochemical
[10] = molecular target: N-type Ca2+ Channel (Homo sapiens, UniProt Q00975); assay: Selectivity: N-type Ca2+ Channel
[11] = molecular target: TXA2 (Homo sapiens, UniProt P21731); assay: biochemical
[12] = molecular target: CYP3A4 Cytochrome P450 (Homo sapiens, UniProt P08684)
[13] = molecular target: H1 Histamine (Homo sapiens, UniProt P35367); assay: Selectivity: H1 Histamine
[14] = molecular target: Bradykinin 2 (Homo sapiens, UniProt P30411); assay: biochemical
[15] = molecular target: LTB4 (Homo sapiens, UniProt Q15722); assay: biochemical
[16] = molecular target: ET-A (Homo sapiens, UniProt P25101); assay: biochemical
[17] = molecular target: LTD4 (Homo sapiens, UniProt Q9Y271); assay: biochemical
[18] = molecular target: TRH (Homo sapiens, UniProt P34981); assay: biochemical
[19] = Intact male rat, testosterone suppression; type: in vivo; details: male, Sprague-Dawley, rat, plasma, intramuscular; 100 mg/kg im*, 7 days; read-out: Range of Plasma Conc.
Excerpt: Testosterone is a hormone regulated by the hypothalamic-pituitary-gonadal axis. GnRH is secreted in pulses from the hypothalamus and stimulates the anterior pituitary gland to release gonadotropic hormones LH and FSH. Testosterone is produced when the testes are stimulated by LH. The quantity of testosterone secreted increases approximately in direct proportion to the amount of LH available (Guyton, 1986).
Male Sprague-Dawley (250-275 g) rats were single-housed and allowed to acclimate for 1 week prior to study. On study day animals were dosed with vehicle or test compound by various routes of administration, including ip, sc, or po. Blood samples were obtained via cardiac puncture under halothane anesthesia from individual animals at predetermined time points post treatment. Blood samples were drawn into heparin containing tubes. Blood was centrifuged immediately, plasma collected and stored in −20° freezer until assayed. Plasma samples were analyzed using DSL-4000 ACTIVE Testosterone coated-tube raduioimmunoassay kit from Diagnostic Systems Laboratories, Inc.
Male Sprague-Dawley (250-275 g) rats were single-housed and allowed to acclimate for 1 week prior to study. We developed a technique to allow for repeated sampling from the jugular vein by using microrenathane (MRE) catheters implanted 7 days prior to study. Details of the surgical procedure have been described previously {Harms and Ojeda, 1974}. On study day, animals were allowed to acclimate to the procedure room while residing in their home cage. Basal blood samples were drawn from all animals. Immediately following basal sampling, vehicle or test compounds were administered by various routes. The routes of administration employed were intravenous (iv), intramuscular (im), and oral (po). Blood samples were drawn into heparin containing tubes at multiple time points post treatment. Blood was centrifuged immediately, plasma collected and stored in −20° freezer until assayed. Plasma samples were analyzed using DSL-4000 ACTIVE Testosterone coated-tube raduioimmunoassay kit from Diagnostic Systems Laboratories, Inc.
Male Sprague-Dawley (250-275 g) rats were double-housed and allowed to acclimate for 1 week prior to study. Daily vehicle treatments were administered either, im, sc, or po between 8:00 and 9:00 am for seven days. On day 8 between 8:00 and 9:00 am, blood samples were drawn via cardiac puncture under halothane anesthesia. The procedure was complete in 45-60 seconds. Over the next 7 days one groups of animals continued to receive vehicle treatments while another group of animals received no treatment. Samples were collected as described above following the 7th day of this treatment regimen. Testosterone levels were not different between vehicle treated animals and untreated animals.
Daily im dosing of Compound 134 (100 mg/kg) or vehicle was performed between 8:00 and 9:00 am for seven days. Samples were collected as described above following the 7th day of treatment.
All blood samples were collected in heparin containing tubes. Blood was centrifuged immediately, plasma collected and stored in −20° freezer until assayed the next day. Plasma samples were analyzed using DSL-4000 ACTIVE Testosterone coated-tube raduioimmunoassay kit from Diagnostic Systems Laboratories, Inc.

Sequence of RXRα Retinoid (P19793 whole entry): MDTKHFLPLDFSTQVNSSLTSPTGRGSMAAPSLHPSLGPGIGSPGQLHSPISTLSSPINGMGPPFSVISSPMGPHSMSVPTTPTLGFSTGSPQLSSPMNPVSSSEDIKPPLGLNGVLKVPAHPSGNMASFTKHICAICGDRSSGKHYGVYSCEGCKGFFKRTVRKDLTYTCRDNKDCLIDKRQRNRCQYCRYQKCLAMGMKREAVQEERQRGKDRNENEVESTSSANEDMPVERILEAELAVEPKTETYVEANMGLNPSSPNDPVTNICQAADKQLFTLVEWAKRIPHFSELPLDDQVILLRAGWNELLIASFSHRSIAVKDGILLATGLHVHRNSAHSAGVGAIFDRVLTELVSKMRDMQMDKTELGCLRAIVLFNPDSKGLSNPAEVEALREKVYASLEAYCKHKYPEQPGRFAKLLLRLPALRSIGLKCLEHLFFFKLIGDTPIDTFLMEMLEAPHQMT
Sequence of RARγ Retinoid (P13631 whole entry): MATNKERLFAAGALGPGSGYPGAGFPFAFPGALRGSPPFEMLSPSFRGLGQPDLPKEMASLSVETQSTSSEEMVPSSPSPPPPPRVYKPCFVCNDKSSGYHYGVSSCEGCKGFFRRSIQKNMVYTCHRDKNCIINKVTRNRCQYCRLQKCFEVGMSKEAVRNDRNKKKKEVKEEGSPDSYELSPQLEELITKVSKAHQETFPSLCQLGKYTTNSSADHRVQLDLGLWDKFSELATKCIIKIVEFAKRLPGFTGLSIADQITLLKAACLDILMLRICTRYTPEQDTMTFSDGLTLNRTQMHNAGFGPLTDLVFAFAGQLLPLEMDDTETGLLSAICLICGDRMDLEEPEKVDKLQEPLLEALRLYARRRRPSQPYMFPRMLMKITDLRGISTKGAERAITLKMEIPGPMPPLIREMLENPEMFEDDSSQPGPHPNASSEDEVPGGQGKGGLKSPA
Sequence of H3 Histamine (Q9Y5N1 whole entry): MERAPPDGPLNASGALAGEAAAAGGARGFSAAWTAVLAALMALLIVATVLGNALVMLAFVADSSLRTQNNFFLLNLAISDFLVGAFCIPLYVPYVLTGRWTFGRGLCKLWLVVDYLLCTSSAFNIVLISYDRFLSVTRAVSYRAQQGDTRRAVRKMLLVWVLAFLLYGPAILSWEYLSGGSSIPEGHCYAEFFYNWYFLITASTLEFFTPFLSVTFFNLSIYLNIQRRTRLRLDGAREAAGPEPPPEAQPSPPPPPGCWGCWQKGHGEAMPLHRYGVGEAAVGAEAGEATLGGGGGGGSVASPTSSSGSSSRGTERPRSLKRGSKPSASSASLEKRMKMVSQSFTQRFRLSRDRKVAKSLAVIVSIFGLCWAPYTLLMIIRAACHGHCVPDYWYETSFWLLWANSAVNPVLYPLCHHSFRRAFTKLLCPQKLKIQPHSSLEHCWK
Sequence of PAF (P25105 whole entry): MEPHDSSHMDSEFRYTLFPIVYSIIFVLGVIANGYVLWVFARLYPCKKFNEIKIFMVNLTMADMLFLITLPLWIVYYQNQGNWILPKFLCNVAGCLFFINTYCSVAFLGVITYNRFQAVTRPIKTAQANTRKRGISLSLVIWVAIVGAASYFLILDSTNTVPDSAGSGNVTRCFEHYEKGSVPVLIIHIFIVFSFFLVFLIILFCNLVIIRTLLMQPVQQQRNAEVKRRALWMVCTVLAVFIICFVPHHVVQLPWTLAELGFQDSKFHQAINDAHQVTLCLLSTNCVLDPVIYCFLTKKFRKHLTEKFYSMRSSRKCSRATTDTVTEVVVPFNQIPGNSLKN
Sequence of CYP3A4 Cytochrome P450 (P08684 whole entry): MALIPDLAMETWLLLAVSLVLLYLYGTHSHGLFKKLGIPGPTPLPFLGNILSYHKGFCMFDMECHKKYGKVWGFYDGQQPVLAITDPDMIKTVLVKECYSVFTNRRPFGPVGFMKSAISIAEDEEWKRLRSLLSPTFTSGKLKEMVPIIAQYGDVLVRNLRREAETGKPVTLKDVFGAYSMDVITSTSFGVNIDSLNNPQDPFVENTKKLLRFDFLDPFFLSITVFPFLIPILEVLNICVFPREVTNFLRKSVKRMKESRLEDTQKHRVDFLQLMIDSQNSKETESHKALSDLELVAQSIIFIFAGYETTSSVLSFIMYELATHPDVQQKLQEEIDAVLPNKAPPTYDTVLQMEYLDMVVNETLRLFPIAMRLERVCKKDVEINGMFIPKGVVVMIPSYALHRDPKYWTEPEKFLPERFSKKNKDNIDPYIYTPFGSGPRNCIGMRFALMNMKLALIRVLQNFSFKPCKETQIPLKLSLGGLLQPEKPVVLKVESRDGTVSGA
Sequence of Choline Acetyltransferase (P28329 whole entry): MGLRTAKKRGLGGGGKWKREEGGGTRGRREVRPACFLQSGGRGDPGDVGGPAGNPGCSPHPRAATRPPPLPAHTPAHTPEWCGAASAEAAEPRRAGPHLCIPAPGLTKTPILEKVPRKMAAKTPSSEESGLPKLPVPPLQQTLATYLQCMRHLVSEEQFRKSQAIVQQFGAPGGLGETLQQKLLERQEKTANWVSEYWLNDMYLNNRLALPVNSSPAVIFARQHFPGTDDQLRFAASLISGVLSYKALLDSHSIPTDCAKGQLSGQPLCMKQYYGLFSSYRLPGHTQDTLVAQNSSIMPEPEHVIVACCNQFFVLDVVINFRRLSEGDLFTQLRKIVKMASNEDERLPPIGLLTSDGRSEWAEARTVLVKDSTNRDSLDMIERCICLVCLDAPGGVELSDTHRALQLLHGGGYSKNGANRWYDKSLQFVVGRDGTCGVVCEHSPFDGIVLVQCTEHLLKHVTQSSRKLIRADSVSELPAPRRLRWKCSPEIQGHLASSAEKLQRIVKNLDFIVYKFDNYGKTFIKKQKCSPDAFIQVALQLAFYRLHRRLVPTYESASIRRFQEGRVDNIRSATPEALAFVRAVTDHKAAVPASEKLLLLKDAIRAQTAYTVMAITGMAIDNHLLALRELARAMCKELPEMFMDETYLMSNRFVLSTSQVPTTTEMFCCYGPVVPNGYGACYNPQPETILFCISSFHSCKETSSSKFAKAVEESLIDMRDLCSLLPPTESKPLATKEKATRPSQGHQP
Sequence of LTB4 (Q15722 whole entry): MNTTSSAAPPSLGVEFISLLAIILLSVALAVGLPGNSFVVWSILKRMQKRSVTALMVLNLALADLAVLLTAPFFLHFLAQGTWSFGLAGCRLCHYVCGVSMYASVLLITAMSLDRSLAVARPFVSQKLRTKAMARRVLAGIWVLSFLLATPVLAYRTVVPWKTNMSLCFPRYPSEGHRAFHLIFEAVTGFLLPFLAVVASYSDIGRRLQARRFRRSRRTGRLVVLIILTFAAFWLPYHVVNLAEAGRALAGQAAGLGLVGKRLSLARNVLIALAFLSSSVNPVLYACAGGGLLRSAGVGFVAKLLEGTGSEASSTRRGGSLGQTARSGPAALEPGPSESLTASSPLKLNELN
Sequence of Bradykinin 2 (P30411 whole entry): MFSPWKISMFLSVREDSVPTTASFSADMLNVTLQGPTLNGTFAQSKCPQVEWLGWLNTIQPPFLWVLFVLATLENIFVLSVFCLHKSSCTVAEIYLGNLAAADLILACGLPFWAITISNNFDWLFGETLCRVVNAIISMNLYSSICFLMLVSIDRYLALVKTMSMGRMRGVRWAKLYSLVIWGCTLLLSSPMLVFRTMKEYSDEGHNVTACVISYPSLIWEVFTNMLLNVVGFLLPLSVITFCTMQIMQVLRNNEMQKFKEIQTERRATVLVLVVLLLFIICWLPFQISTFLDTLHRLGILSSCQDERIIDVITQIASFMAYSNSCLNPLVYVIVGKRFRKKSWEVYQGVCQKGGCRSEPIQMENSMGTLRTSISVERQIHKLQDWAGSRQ
Sequence of MAO-B (P27338 whole entry, species assumed): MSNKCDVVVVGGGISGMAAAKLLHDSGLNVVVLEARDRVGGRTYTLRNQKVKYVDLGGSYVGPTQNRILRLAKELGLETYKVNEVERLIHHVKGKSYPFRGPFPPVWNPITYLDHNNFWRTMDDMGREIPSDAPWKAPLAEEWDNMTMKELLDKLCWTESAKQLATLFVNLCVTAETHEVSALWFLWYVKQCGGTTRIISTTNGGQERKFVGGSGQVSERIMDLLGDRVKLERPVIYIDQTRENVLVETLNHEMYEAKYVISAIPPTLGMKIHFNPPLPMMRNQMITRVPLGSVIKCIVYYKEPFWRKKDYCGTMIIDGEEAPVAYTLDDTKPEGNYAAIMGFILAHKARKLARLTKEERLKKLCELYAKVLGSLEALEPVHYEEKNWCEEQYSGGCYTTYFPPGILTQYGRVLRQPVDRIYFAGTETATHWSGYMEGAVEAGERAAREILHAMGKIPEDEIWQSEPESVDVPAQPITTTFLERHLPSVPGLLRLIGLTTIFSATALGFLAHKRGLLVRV
Sequence of LTD4 (Q9Y271 whole entry): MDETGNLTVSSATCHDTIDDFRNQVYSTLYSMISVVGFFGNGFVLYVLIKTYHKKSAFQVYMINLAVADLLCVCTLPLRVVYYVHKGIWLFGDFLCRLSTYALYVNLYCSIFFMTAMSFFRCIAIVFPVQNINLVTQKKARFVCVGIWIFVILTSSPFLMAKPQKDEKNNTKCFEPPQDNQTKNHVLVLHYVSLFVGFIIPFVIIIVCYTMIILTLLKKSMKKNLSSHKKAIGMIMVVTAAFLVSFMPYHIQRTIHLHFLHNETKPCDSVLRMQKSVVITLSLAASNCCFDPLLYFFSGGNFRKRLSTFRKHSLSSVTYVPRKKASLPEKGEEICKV
Sequence of NK2 (P21452 whole entry): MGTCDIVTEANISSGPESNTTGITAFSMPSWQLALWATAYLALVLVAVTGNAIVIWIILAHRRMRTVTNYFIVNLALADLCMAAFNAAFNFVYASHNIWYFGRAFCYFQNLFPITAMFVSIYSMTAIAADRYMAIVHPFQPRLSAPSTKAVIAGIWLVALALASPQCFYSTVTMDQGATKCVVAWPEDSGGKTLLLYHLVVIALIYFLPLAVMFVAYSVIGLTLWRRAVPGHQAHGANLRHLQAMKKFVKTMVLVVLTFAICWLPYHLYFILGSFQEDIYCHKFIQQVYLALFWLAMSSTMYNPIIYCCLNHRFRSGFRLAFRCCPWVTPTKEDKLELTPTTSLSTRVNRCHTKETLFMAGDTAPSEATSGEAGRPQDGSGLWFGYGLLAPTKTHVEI

SMILES | Ki [1] [µM] | Ki [2] [µM] | Ki [3] [µM] | Ki [4] [µM] | Ki [5] [µM] | Ki [6] [µM] | Ki [7] [µM] | Ki [8] [µM] | Ki [9] [µM] | Ki [10] [µM] | Ki [11] [µM] | IC50 [12] [µM] | Ki [13] [µM] | Ki [14] [µM] | Ki [15] [µM] | Ki [16] [µM] | Ki [17] [µM] | Ki [18] [µM] | concentration at 7 days [19] [nM]
COc1cccc(OC)c1NC(=O)c1ccc(Cc2cc3c(cc2C)C(C)(C)CCC3(C)C)o1 [Compound 20] | ~1 | > 1 | 3 to 5 | > 1 | > 1 | > 1 | > 10 | > 1 | > 10 | > 1 | > 1 | 1.7 | > 1 | > 1 | > 1 | > 1 | > 1 | > 1 | –
COc1cc(OC)c(NC(=O)c2ccc(Cc3cc4c(cc3C)C(C)(C)CCC4(C)C)o2)c(OC)c1 [Compound 134] | – | – | – | – | – | – | – | – | – | – | – | – | – | – | – | – | – | – | 1300
